Experiments:
[1] = biological target: T1, BTK kinase (Homo sapiens, UniProt Q06187); assay: BTK kinase activity inhibition assay (ADP-Glo); format: biochemical; conditions: ATP 50 μM
T1 construct: purchased Invitrogen PV3363
Description: The BTK kinase (purchased from Invitrogen, No.: PV3363) was diluted with reaction buffer (40 mM Tris-HCl, pH 7.5; 20 mM MgCl2, 0.1 mg/ml BSA; 1 mM DTT; 2 mM MnCl2) to 2 times of the final concentration (which is 1.1 ng/μL) and added with 5 μL/well to a 96-well plate. The compounds of the present invention were serial diluted with deionized water to four times (i.e., 40 μM, 4 μM, 0.4 μM, 80 nM, 16 nM, 3.2 nM, respectively) of the final concentrations (10 μM, 1 μM, 0.1 μM, 20 nM, 4 nM, 0.8 nM, respectively), and added at 2.5 μL/well to the test wells of the 96-well plate. After incubation at 25° C. for 10 minutes, ATP (50 μM) (purchased from Promega, No.: V9102) and 0.2 μg/μL of Poly E4Y1 (purchased from Sigma, No.: P0275-25MG) were added with 2.5 μL/well and incubated at 25° C. for 120 minutes. After the reaction was completed, 10 μL of the ADP-Glo reagent (ADP-Glo™ kinase assay kit, purchased from Promega, No.: V9102) was added to each well, and reacted at 25° C. for 40 minutes. Then 20 μL of the ADP-Glo kinase detection reagent was added to each well and reacted at 25° C. for 30 minutes. The kinase activity was detected by luminescence using the ADP-Glo kinase assay kit according to the manufacture's instruction, and IC50 values of the compounds of the present invention were calculated.

[2] = biological target: T2, JAK3 kinase (Homo sapiens, UniProt P52333); assay: JAK3 kinase activity inhibition assay (ADP-Glo); format: biochemical; conditions: ATP 10 μM
T2 construct: purchased SignalChem J03-11G
T2 sequence (P52333 781-1124 limits assumed): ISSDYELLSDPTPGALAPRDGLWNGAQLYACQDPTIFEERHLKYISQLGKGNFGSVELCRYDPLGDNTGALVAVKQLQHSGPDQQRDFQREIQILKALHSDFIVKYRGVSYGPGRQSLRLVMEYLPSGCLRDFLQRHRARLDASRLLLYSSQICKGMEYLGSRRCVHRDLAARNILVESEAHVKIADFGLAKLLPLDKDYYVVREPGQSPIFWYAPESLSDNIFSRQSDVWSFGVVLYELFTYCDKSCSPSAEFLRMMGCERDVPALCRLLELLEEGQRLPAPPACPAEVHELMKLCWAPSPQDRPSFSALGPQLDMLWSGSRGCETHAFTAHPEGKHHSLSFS
Description: The JAK3 kinase (purchased from SignalChem, No.: J03-11G) was diluted with reaction buffer (40 mM Tris-HCl, pH 7.5; 20 mM MgCl2, 0.1 mg/ml BSA; 1 mM DTT) to 2 times of the final concentration (which is 0.5 ng/μL) and added with 5 μL/well to a 96-well plate. The compounds of the present invention were serial diluted with deionized water to four times (i.e., 40 μM, 4 μM, 0.4 μM, 80 nM, 16 nM, 3.2 nM, respectively) of the final concentrations (10 μM, 1 μM, 0.1 μM, 20 nM, 4 nM, 0.8 nM, respectively), and added with 2.5 μL/well to the test wells of the 96-well plate. After incubation at 25° C. for 10 minutes, 10 μM of ATP (purchased from Promega, No.: V9102) and 0.2 μg/μL of Poly E4Y1 (purchased from Sigma, No.: P0275-25MG) were added at 2.5 μL/well and reacted at 25° C. for 60 minutes. After the reaction was completed, 10 μL of the ADP-Glo reagent (ADP-Glo™ kinase assay kit, purchased from Promega, No.: V9102) was added to each well and reacted at 25° C. for 40 minutes. Then 20 μL of the ADP-Glo kinase detection reagent was added to each well and reacted at 25° C. for 30 minutes. The kinase activity was detected by luminescence using the ADP-Glo kinase assay kit according to the manufacture's instruction, and IC50 values of the compounds of the present invention were calculated.

T1 sequence (Q06187 whole entry): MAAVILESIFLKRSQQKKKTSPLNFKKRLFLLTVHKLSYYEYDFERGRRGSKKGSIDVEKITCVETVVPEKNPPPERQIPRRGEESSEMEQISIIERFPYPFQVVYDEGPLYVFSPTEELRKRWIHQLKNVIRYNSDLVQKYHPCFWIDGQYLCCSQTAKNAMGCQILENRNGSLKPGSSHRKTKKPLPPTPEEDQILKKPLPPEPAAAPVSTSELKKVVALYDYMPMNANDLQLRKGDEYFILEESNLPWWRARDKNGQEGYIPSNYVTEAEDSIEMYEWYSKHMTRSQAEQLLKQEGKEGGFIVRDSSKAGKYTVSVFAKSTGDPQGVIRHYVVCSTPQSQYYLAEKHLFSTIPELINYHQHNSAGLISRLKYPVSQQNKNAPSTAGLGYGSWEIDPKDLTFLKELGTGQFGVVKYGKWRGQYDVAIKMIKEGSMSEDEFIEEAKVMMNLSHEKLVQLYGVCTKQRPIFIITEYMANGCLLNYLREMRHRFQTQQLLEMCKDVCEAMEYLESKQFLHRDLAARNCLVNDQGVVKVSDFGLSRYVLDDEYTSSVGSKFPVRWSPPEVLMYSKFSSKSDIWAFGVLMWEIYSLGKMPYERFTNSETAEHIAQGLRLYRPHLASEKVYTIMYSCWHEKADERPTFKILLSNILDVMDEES

IC50 [1]: ≤ 50 nM
IC50 [2]: ≤ 10 nM
Compound: C=CC(=O)N1CC[C@@H](Nc2nc(Nc3cc(C)ns3)nc3ccsc23)C1 [Example 132, (R)-1-(3-((2-((3-methyl-isothiazol-5-yl)amino)thieno[3,2-d]pyrimidin-4-yl)amino)pyrrolidin-1-yl)prop-2-en-1-one]

Source: US10273242B2, “Compound inhibiting activities of BTK and/or JAK3 kinases” (BEIJING HANMI PHARMACEUTICAL CO., LTD., priority 2013, dated 2019)
